Measured values published in US11679111B2, “Fatty acid synthase inhibitors” (priority 2016, dated 2023).

Tests used:
[1] = molecular target: T1, FASN (Sus scrofa, UniProt A5YV76); test: FLECS screen, elution of fluorescein labeled proteins from Cibacron blue resin; assay type: binding, porcine; conditions: SDS-PAGE and mass spectrometry
T1 construct: from tissue; host or cells: lactating porcine mammary gland extract
Source text: To specifically identify inhibitors of FASN targeting its nucleotide binding pockets Cibacron blue Sepharose was utilized. This medium has been used previously to purify NAD and NADP binding proteins from crude tissues extracts (Miyaguchi et al., 2011; Muratsubaki et al., 1994). FASN enriched extract from lactating pig mammary gland was bound to the resin and labeled with cysteine reactive fluorescein. […] One hundred and fifty-five of the molecules selectively eluted FASN from the resin, and 20 potential lead compounds were progressed according to their FASN selectivity (assessed with SDS-PAGE, silver staining and mass spectrometry). These twenty compounds were reduced to 13 based on the absence of any obvious chemical liabilities. Next, the molecules were tested for their ability to inhibit FASN activity in a HepG2 cell based assay that measured the incorporation of ^3H glucose into lipids (FIG. 1B and FIG. 9).
Porcine mammary glands were collected from lactating pigs as previously described (Hughes et al., 2012). Tissues were homogenized in lysis buffer A (100 mM sodium fluoride, 5 mM EDTA, 1 mM DTT and 5% glycerol made in 10 mM sodium phosphate buffer pH 7.5) in a ratio of 3 ml of buffer per each gram of tissue. […] Fluorescence in each well was measured at Ex/Em: 485/535 nm. […]

[2] = test system: MCF7, MDA-MB-468, BT474 and SKBR3 cells; test: Proliferation assay (Hoechst DNA content), aggressive breast cancer cell lines; assay type: cell-based; conditions: MCF7, MDA-MB-468, BT474, SKBR3
Experimental: (§1) MCF10A (5,000 cells/well), MCF7 (7,500 cells/well), MDA-MB-468 (5,000 cells/well), BT474 (7,500 cells/well), and SKBR3 (5,000 cells/well) were seeded in 96 well plates with 10% FBS 4 g/L glucose DMEM media except for MCF10A which was DMEM/F12 media. After 24 hours, cells were treated with different concentration of HS-106 or C75. Every 24 hours for five days, media from one of the plates was removed and plate was frozen at −80° C. After collecting all the time points, to each well 100 μl ddH2O was add and the plates were frozen again. Then 100 μI of Hoechst 33258 solution made in TNE buffer (1 μl from Hoechst stock (1 mg/ml in 1:4 DMSO:H20) in 1 ml of TNE (which contains 10 mM Tris, 2M NaCl and 1 mM Na2EDTA) and fluorescence was measured at Ex/Em: 355/460.

[3] = test system: MCF10A cells; test: Proliferation assay (Hoechst DNA content), non-tumorigenic cell line; assay type: cell-based
Experimental: as §1

[4] = test system: HepG2 cells; test: HepG2 cell viability (Resazurin); assay type: cell-based
Experimental: HepG2 cells were seeded in 96 well plates and after reaching 80% confluency, the cells were treated with different concentrations of HS-106 for 4 hours. At the end of the treatment time, 10 μl of 700 μM Resazurin (prepared with PBS) were added to each well. After 3 hours, the Resorufin fluorescence was measured at Ex/Em: 540/590 nm.

[5] = Cellular toxicity / viability in the TZM-bl model; conditions: human, TZM-bl cells
Source text: (§2) The data presented are mean values (±SD) from three independent experiments. ** Indicates p<0.0001, treatment versus DMSO-treated control (Students t-test).

[6] = test system: TZM-bl cells; test: Cellular toxicity / viability in the TZM-bl model
Source text: as §2

[7] = test system: HIV-1; assay type: cell-based
Experimental: (A) TZM-bl cells were transfected with pNL4-3 provirus plasmid for 48 h in the presence or absence of 10 μM Fasnall or C75 or DMSO (0.01%). Intracellular expression of HIV-1 proteins was monitored by HIVIG-western blot, and β-actin was used as loading control. (B) Supernatant associated virion production was monitored using a p24 ELISA. (C) 48 hours post-transfection, cell culture supernatants were removed and incubated with fresh TZM-bl (indicator) cells for an additional 48 hrs. Values expressed as the mean±standard deviation, and are representative of three independent experiments. p-values were generated with student's t-test. Molecular weight markers (kD) indicated in right margin.
To test further the hypothesis that HIV-1 replication requires FASN activity during the late stages of viral replication, TZM-bl or SupT1 (data not shown) cells were transfected with a HIV-1 provirus (pNL43) in the presence or absence of Fasnall or C75. […] Thus, FASN inhibition reduces nascent HIV-1 virion production without reducing HIV-1 protein synthesis.

[8] = 15 mg/kg IP
[9] = in vivo; conditions: MMTV-Neu, mouse, 15 mg/kg, n=3

T1 sequence (A5YV76 entry or part of it): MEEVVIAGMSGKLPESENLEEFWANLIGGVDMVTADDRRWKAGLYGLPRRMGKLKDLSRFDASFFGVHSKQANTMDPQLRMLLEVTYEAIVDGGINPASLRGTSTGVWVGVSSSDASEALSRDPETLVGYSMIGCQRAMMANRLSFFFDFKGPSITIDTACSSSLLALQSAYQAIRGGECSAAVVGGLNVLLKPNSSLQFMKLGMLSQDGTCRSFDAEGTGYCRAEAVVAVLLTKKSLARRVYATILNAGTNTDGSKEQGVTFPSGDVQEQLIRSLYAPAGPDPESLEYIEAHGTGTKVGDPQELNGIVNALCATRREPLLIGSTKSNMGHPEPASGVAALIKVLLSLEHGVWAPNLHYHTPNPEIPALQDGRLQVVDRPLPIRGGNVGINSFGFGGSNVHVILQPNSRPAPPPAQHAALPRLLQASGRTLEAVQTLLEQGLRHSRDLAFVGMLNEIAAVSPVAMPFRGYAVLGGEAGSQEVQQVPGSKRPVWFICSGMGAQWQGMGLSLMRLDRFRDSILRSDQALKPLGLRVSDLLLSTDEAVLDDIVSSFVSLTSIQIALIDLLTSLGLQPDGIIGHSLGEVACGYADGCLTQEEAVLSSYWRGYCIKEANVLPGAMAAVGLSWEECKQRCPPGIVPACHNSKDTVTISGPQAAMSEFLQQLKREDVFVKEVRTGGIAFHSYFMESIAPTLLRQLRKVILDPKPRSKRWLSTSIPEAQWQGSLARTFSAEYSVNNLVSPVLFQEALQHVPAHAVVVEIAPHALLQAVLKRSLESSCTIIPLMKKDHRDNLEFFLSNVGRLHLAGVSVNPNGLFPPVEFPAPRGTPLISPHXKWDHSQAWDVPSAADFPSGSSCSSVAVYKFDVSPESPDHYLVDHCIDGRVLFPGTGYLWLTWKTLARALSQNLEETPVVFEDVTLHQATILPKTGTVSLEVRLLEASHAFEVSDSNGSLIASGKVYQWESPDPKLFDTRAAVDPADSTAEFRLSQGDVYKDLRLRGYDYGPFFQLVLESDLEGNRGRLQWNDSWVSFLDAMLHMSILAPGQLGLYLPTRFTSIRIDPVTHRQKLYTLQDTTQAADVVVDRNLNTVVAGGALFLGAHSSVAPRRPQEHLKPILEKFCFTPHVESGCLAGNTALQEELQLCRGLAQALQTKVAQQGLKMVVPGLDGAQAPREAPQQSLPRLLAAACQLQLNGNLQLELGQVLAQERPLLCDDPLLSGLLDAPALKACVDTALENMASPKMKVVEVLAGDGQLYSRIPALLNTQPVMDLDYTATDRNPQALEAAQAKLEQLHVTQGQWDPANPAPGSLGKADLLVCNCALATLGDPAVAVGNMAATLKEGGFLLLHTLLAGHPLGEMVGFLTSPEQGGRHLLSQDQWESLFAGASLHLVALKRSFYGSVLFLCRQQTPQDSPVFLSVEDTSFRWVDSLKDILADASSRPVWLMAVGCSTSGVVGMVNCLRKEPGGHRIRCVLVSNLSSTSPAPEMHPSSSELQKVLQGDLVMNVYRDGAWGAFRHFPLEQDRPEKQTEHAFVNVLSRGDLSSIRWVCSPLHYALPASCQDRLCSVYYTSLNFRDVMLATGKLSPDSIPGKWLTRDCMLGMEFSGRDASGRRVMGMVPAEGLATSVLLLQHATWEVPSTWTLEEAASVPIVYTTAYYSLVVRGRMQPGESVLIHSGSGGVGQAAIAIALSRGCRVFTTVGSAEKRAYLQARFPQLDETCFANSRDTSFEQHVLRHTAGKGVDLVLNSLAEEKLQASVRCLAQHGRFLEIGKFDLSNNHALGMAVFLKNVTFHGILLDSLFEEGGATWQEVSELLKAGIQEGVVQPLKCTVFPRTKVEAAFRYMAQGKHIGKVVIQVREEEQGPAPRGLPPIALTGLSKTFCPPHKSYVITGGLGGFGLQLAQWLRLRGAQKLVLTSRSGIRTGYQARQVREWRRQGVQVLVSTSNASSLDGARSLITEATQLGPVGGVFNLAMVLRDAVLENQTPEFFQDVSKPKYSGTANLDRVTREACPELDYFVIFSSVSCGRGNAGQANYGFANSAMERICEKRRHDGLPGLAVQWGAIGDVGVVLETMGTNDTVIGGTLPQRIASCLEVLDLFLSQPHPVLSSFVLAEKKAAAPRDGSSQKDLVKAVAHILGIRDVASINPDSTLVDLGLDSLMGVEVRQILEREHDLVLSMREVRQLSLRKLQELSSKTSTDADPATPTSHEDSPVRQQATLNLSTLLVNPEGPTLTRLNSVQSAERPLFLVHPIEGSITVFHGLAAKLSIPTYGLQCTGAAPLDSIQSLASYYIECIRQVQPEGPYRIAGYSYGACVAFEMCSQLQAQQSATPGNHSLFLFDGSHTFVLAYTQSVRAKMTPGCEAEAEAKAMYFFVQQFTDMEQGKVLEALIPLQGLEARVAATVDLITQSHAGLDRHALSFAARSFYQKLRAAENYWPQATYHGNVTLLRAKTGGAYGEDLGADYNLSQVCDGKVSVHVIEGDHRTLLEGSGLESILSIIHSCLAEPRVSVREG

Cc1sc2ncnc(NC3CCN(Cc4ccccc4)C3)c2c1C (racemic) [HS-106, N-(1-benzylpyrrolidin-3-yI)-5,6-dimethylthieno[2,3-d]pyrimidin-4-amine]
elution of FASN from Cibacron blue resin (hit strength / selectivity) [1]: selectively elutes FASN | inhibition of proliferation [2]: inhibited the proliferation of aggressive cell lines with similar potency to C75 | inhibition of proliferation [3]: lower activity | HepG2 cell viability [4]: without affecting the cell viability | CC50 [5]: 10 µM | TZM-bl cell viability (MTT-activity) [6]: without significant effects on TZM-bl cell viability | HIV-1 p24 particle deposition into culture medium ([7]; TZM-bl, 10 μM, 48 h): significantly reduce HIV-1 p24 particle deposition into culture medium | intracellular Gag levels ([7]; TZM-bl, 10 μM, 48 h): did not reduce intracellular Gag levels | number of infectious HIV-1 particles ([7]; supernatants on fresh TZM-bl indicator cells): similarly reduced the number of infectious HIV-1 particles | time of appearance in plasma after IP injection [8]: ≤ 5 min | half-life ([9]; T1/2 tumor tissue): 65.71 ± 0.32 min | half-life ([9]; ip, T1/2 kidney, 15 mg/kg IP): 9.9 ± 0.01 min | half-life ([9]; ip, T1/2 liver, 15 mg/kg IP): 9.84 ± 0.09 min | half-life ([9]; ip, T1/2 plasma, 15 mg/kg IP): 9.81 ± 0.02 min
